Where two headings read alike, the source gives them in different places.
How the values were obtained:
MiaPaca2 cells = experiment: MiaPaca2 cell viability, combination with chemotherapy; format: cell-based; conditions: MiaPaca2 cells
From the text: The cell viability assays and Bliss synergy analyses are as described above in Examples 1-9 and 11-12.

AIF in MDA-MB-231 cells = experiment: AIF localization in MDA-MB-231 cells; format: cell-based; conditions: 4 μM
Protocol: (§1) The ability of Compounds 12, 15 and 16 to localize AIF was tested in SUM149 (breast cancer) and MDA-MB-231 (TNBC) cell lines. A comparison of the relative distribution of AIF in nuclei (a) versus cytoplasm (b) in SUM149 cells and nuclei (c) versus cytoplasm (d) in MDA-MB-231 cells in the presence of 4 μM Compounds 12, 15 and 16 are shown in FIG. 28. […] Similarly, AIF concentration in the cytoplasm of MDA-MB-231 cells decreased by about 0.5 after administration with Compound 15. After treatment with Compound 16, the relative concentration of AIF in the nuclei of SUM149 cells increased by about 0.5-fold, and the concentration of AIF in the cytoplasm decreased by about 0.4-fold. In MDA-MB-231 cells, the relative concentration of AIF in the cytoplasm decreased by about 0.5-fold, while the concentration of AIF increased in the nuclei by about 0.1-fold.

AIF in SUM149PT cells = experiment: AIF immunofluorescence in SUM149PT (SUM149) cells; format: cell-based
From the text: CHD1Li-mediated PAR translocation to the cytoplasm activates PARthanatos as a cell death mechanism. Parthanatos is a form a programmed cell death different from apoptosis and known to be mediated by PARP1 overactivation. The unique events occurring during parthanatos are: PARP1 rapid activation, accumulation of PAR and nuclear translocation of apoptosis inducing factor (AIF). Without being bound by any particular theory, accumulation of PAR in the cytoplasm caused by CHD1Li can also mediate parthanatos. To better understand the link between PAR translocation to the cytoplasm and cell death, immunofluorescence to measure the activation of caspase-3 and the subcellular localization of AIF after treatment with SOC drugs and Compound 6 in SUM49PT cells was used. […] Without being bound by any particular theory, this might be caused by the mitochondrial outer membrane permeabilization, which triggers release of mitochondrial proteins like AIF or cytochrome c, activating caspase-3 by its cleavage and leading to apoptosis. […] Moreover, when combining CHD1L inhibition with SOC drugs, the cell death mechanism shifts from apoptosis to parthanatos, evidenced by a significant increase in AIF nuclear translocation and decrease in activation of caspase-3 (FIG. 25D-E).
as §1

[1] = system: MDA-MB-231 tumor organoids; experiment: Tumor organoid cytotoxicity, MDA-MB-231; format: cell-based; conditions: MDA-MB-231
Protocol: Tumor organoid culture—Cell lines were cultured as tumor organoids by seeding 2,000 to 5,000 cells/well into uncoated 96 well U-bottom Ultra Low Attachment Microplates (Corning) using their corresponding medium. Cell aggregation was then promoted by centrifugation of the plates for 15 min at 1,000 rpm followed by the addition of Matrigel (Corning) to a 2-5% final concentration. Tumor organoids were maintained under standard cell culture conditions for 72 h prior to drug treatment.
Organoids were then transferred to a white solid bottom 96 well plate and incubated with an equal volume of CellTiter Glo 3D reagent (Promega) for 45 min on a shaker at 400 rpm. Luminescence was recorded using the EnVision plate reader (PerkinElmer) and values normalized to the controls using GraphPad Prism.

SUM149PT tumor organoids = experiment: Tumor organoid cytotoxicity (CellTiter Glo 3D), SUM149PT; format: cell-based; conditions: for calculated mean synergy scores: MDA-MB-231 and SUM149PT; for Mean Synergy Score / IC50: SUM149PT; for IC50: Homo sapiens, read-out: IC50 docetaxel
Protocol: Tumor organoid culture—Cell lines were cultured as tumor organoids by seeding 2,000 to 5,000 cells/well into uncoated 96 well U-bottom Ultra Low Attachment Microplates (Corning) using their corresponding medium.
Luminescence was recorded using the EnVision plate reader (PerkinElmer) and values normalized to the controls using GraphPad Prism.

Colo678 cells = experiment: Colo678 cell viability, combination with chemotherapy; format: cell-based; conditions: Colo678 cells
PAR in SUM149PT cells = experiment: PAR immunofluorescence (nuclear / cytoplasmic PAR); format: cell-based
From the text: Inhibition of CHD1L promotes PAR translocation to the cytoplasm. The main role of PARP1 during the DDR is to detect and signal the recruitment of repair machinery to the sites of DNA damage. For that, PARP1/2 catalyze PARylation, which is a pivotal […] protein modification, consisting of the addition of ADP-ribose units to the carboxyl group of acidic residues such as glutamate or aspartate on target proteins by using NAD^+ as substrate. CHD1L is one of the proteins that requires binding to these PAR chains for its activation and subsequent chromatin remodeling. Using immunofluorescence of PAR, the effect of PARPi and CHD1Li on PARylation in SUM149PT cells was investigated. […] In addition, the effect of doxorubicin on nuclear PARylation was reverted by CHD1L inhibition, causing an increase of PAR in the cytoplasm (FIG. 25A-C).

CHD1L = target: T1, CHD1L (Homo sapiens, UniProt Q86WJ1); experiment: CHD1L trapping (in situ subcellular fractionation, immunofluorescence); format: cell-based; conditions: single agent; SUM149PT + 0.01% MMS 4 h; BC and CRC cells
T1 sequence (Q86WJ1 1-897): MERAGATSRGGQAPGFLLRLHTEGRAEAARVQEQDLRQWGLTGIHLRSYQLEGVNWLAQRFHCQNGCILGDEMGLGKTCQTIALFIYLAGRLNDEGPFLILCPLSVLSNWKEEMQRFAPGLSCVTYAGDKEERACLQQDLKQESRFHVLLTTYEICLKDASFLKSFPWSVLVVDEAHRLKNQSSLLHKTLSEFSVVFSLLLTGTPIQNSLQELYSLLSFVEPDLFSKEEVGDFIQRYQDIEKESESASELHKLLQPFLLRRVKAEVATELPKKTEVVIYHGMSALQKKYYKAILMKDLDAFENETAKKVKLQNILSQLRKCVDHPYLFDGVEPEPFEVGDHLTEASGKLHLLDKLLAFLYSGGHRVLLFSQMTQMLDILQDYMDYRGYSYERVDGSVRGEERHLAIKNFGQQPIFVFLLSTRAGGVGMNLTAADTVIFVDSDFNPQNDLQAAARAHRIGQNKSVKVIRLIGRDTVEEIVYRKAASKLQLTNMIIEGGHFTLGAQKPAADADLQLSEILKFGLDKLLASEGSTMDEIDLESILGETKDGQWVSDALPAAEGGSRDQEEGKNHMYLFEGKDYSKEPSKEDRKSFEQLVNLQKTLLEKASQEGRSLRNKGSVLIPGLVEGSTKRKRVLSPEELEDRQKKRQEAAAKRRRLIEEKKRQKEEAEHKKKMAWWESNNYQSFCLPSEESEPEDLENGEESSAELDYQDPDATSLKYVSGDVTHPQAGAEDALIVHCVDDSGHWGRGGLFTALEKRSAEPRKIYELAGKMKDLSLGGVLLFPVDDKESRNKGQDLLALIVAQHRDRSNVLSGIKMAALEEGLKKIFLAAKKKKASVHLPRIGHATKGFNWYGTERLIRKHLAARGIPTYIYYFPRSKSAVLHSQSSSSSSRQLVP
From the text: Other studies on the role of CHD1L used cell lines with knockdown or knockouts of the gene encoding for CHD1L and have never been able to study the result of its enzymatic inhibition.

SW948 tumor organoids = experiment: cells; conditions: SW948 tumor organoids; combined with Compound 6
Protocol: ATM is an important protein involved in the initial stages of the DNA damage response. […] ATM mutations are important markers being developed to identify metastatic CRC (mCRC) patients that may be sensitive to DNA damaging chemotherapy.
Synergy was assessed using the Bliss model.

HCT116 Parental cells = experiment: HCT116 Parental cell viability, combination with chemotherapy; format: cell-based; conditions: HCT116 cells
SW620 Parental cells = experiment: SW620 Parental cell viability, combination with chemotherapy; format: cell-based; conditions: SW620 cells
[2] = Compound 13 combined with Olaparib
[3] = Compound 13 combined with doxorubicin
[4] = SUM149PT cells, single agent, 18 h
[5] = SUM149PT tumor organoids, combined with Compound 6

## Cc1cc(Nc2ccc(NC(=O)Cc3c[nH]c4cc(Cl)ccc34)cc2)nc(N2CCCC2)n1 [Compound 7, 2-(6-chloro-1H-indol-3-yl)-N-(4-((6-methyl-2-(pyrrolidin-1-yl)pyrimidin-4-yl)amino)phenyl)acetamide]
MiaPaca2 cells; combined with 5-FU
  calculated mean synergy score: about 25
MiaPaca2 cells; combined with SN-38
  calculated mean synergy score: about 24.5

## Cc1cc(Nc2ccc(NC(=O)Cc3ccc(Br)s3)cc2)nc(N2CCCC2)n1 [Compound 15, 2-(5-bromothiophen-2-yl)-N-(4-((6-methyl-2-(pyrrolidin-1-yl)pyrimidin-4-yl)amino)phenyl)acetamide]
AIF in MDA-MB-231 cells
  decrease in AIF in the cytoplasm: about 0.5 fold
AIF in SUM149PT cells; SUM149 cells, 4 μM
  decrease in AIF in the cytoplasm: about 0.5 fold
  increase in AIF in the nucleus: about 0.5 fold

## Cc1cc(Nc2ccc(NC(=O)c3cc(Br)cs3)cc2)nc(N2CCCC2)n1 [Compound 13, 4-bromo-N-(4-((6-methyl-2-(pyrrolidin-1-yl)pyrimidin-4-yl)amino)phenyl)thiophene-2-carboxamide]
[1]; Compound 13 combined with 5-FU
  Mean Synergy Score: 23.62
[1]; [2]
  Mean Synergy Score: 40.44
[1]; [3]
  Mean Synergy Score: 23.62
MiaPaca2 cells; combined with 5-FU
  calculated mean synergy score: about 57
MiaPaca2 cells; combined with SN-38
  calculated mean synergy score: about 18
SUM149PT tumor organoids; all combinations with 5-FU or doxorubicin
  calculated mean synergy scores: at least 20
SUM149PT tumor organoids; all combinations with Olaparib
  calculated mean synergy scores: at least 40
SUM149PT tumor organoids; Compound 13 combined with 5-FU
  Mean Synergy Score: 23.62
SUM149PT tumor organoids; [2]
  Mean Synergy Score: 69.46
SUM149PT tumor organoids; [3]
  Mean Synergy Score: 42.74
Colo678 cells; 72 h, combined with SN-38
  calculated mean synergy score: about 41
Colo678 cells; combined with 5-FU
  calculated mean synergy score: about 12

## CCc1cc2ncc(CN3CCN(c4ccc(C(=O)NC)nc4)CC3)cc2[nH]c1=O [AZD5305]
AIF in SUM149PT cells; [4]
  cytoplasmic AIF: increase in the AIF intensity in the cytoplasm
  nuclear AIF: no translocation of this protein to the nucleus
SUM149PT tumor organoids; [5]
  improvement of IC50 potency: 2.7 fold
PAR in SUM149PT cells; SUM149PT cells, single agent, 4 h
  nuclear PAR (PARylation): inhibition of nuclear PARylation
CHD1L
  CHD1L trapping onto chromatin/nucleosomes: did not show CHD1L trapping

## Cc1cc(Nc2ccc(NC(=O)Cc3cc(Cl)nc4ccccc34)cc2)nc(N2CCCC2)n1 [Compound 8, 2-(2-chloroquinolin-4-yl)-N-(4-((6-methyl-2-(pyrrolidin-1-yl)pyrimidin-4-yl)amino)phenyl)acetamide]
MiaPaca2 cells; combined with 5-FU
  calculated mean synergy score: about 29.5
MiaPaca2 cells; combined with SN-38
  calculated mean synergy score: about 26

## CC(=O)O[C@@]12CO[C@@H]1C[C@H](O)[C@@]1(C)C(=O)[C@H](O)C3=C(C)[C@@H](OC(=O)[C@H](O)[C@@H](NC(=O)OC(C)(C)C)c4ccccc4)C[C@@](O)([C@@H](OC(=O)c4ccccc4)[C@H]21)C3(C)C [docetaxel]
SUM149PT tumor organoids; [5]
  IC50: 0.5 µM
SUM149PT tumor organoids; SUM149PT tumor organoids, docetaxel alone
  IC50: 55 µM
SUM149PT tumor organoids; SUM149PT BRCA1 mutant tumor organoids, + 1.9 μM Compound 6
  increase in potency of the chemotherapy: 110 fold

## PDD00017273
PAR in SUM149PT cells; cells pre-treated 2 hours with 1 μM PARG inhibitor before CHD1Li
  nuclear PAR under CHD1L inhibition: kept the levels of nuclear PAR similar to control cells

## O=C(O)C(=O)O.[NH-][C@@H]1CCCC[C@H]1[NH-].[Pt+2] [oxaliplatin]
SW948 tumor organoids
  increase in potency of the chemotherapy: 20 fold

## Cc1cc(Nc2ccc(NC(=O)/C=C/c3cc(Br)cs3)cc2)nc(N2CCCC2)n1 [Compound 11, (E)-3-(4-bromothiophen-2-yl)-N-(4-((6-methyl-2-(pyrrolidin-1-yl)pyrimidin-4-yl)amino)phenyl)acrylamide]
HCT116 Parental cells; 72 h, combined with SN-38
  calculated mean synergy score: about 14
HCT116 Parental cells; combined with 5-FU
  calculated mean synergy score: about 8
SW620 Parental cells; 72 h, combined with SN-38
  calculated mean synergy score: about 24
SW620 Parental cells; combined with 5-FU
  calculated mean synergy score: about 43
